Where a name gives a salt, the structure may show the parent alone.
How the values were obtained:
[1] = Aqueous solubility of sildenafil mesylate; assay type: physicochemical; settings: no solubility enhancing agent
Method: Preferred as solubility enhancing agents are caffeine (preferably at a concentration of from 1.0 to 2.5% weight/vol); nicotinamide (preferably 3.0 to 20.0% weight/vol); vanillin (preferably 0.5 to 2.5% weight/vol); and benzyl alcohol (preferably 0.5 to 2.5% weight/vol). A combination of nicotinamide and vanillin is also preferred. By using such solubility enhancing agents, it is possible to increase the solubility of sildenafil mesylate in water from approximately 60 mg/ml to in excess of 100 mg/ml. This allows a more concentrated solution to be administered facilitating a rapid onset of action and reducing irritancy. One particular and preferred formulation comprises sildenafil mesylate 100 mg/ml and caffeine 15 mg/ml in a buffered aqueous solution. The pH of the solution is preferably adjusted to pH 3-5, preferably to pH 4.2 by the addition of a base e.g. sodium hydroxide.

[2] = Plasma levels in dogs after intranasal versus oral dosing; assay type: in vivo
Method: The effectiveness of the intranasal formulations of the present invention were evaluated in dogs. Four fasted dogs were lightly anaesthetised, each received 5 mg of the cGMP-PDE5 inhibitor in both nostrils. The drug was administered both as a powder and as a solution. Plasma levels of the active agent were measured and compared with plasma levels obtained when the dogs were previously orally dosed with the agent.
Thus a solution dose of 0.7 mg/kg of sildenafil mesylate administered by the intranasal route to four dogs gave a mean peak blood plasma levels of 407 ng/ml after a period of 5 minutes.

[3] = Plasma levels in human volunteers after intranasal administration; assay type: in vivo; settings: man
[4] = four dogs, intranasal route, solution dose 0.7 mg/kg

mean peak blood plasma level ([2]; dog, in vivo, po, 1.4 mg/kg) | time of mean peak blood plasma level ([2]; dog, in vivo, po, 1.4 mg/kg) | Compound | solubility in water [1] | blood plasma levels after intranasal versus oral administration ([2]; dogs, intranasal powder and solution, 5 mg in both nostrils, compared with oral dosing) | mean peak blood plasma level [2, 4] | time of mean peak blood plasma level [2, 4] | blood plasma levels of sildenafil versus oral dosing [3] | time of peak blood plasma levels after administration [3]
 |  | 5-[2-ethoxy-5-(4-methylpiperazin-1-ylsulphonyl)phenyl]-1,6-dihydro-1-methyl-3-propylpyrazolo[4,3-d]pyrimidin-7-one)methanesulphonate salt [sildenafil mesylate] | approximately 60 mg/ml | particularly effective | 407 ng/mL | 5 min | comparable with oral dosing | 5 to 15 min
204 ng/mL | 136 min | CCCc1nn(C)c2c(=O)[nH]c(-c3cc(S(=O)(=O)N4CCN(C)CC4)ccc3OCC)nc12 [sildenafil citrate, reference compound] |  |  |  |  |  | 

— patent US20020040139A1, “INTRANASAL FORMULATIONS FOR TREATING SEXUAL DISORDERS” (priority 1998, published 2002)
